# From US8569298B2, “Pyridine compounds” (Astrazeneca AB, priority 2008, dated 2013)
# Target: T1, FAK enzyme (6 His tagged kinase domain, GenBank NP—722560) (Homo sapiens, UniProt Q05397)
# T1 construct: 6 His; made in house; host or cells: insect cell culture infected with baculovirus
# Experiment: In vitro enzyme assay (a): sandwich ELISA of FAK tyrosine kinase activity on polyGAT peptide, TMB colorimetric endpoint
# Format: biochemical
# Conditions: in vitro Enzyme Assay test (a); ATP at Km; geometric mean of n > 1 measurements, values marked * tested once
# Procedure, shortened: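 Recombinant His-tagged FAK kinase domain (baculovirus/insect cells) phosphorylated plate-coated polyGAT with ATP at Km, MgCl2/MnCl2, HEPES pH 7.4, 25 min at room temperature before EDTA stop. Phosphotyrosine detected by HRP-4G10 antibody and TMB absorbance at 450 nm; IC50 from 12-point curve anchored to DMSO and staurosporine controls.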
# T1 sequence (Q05397 422-680 limits assumed): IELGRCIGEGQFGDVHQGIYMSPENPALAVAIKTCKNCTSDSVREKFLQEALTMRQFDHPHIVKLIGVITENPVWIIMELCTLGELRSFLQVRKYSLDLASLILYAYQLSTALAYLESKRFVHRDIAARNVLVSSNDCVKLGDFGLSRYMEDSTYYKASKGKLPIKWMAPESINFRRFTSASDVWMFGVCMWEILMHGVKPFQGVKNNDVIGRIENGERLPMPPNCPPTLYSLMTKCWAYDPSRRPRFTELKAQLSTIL
row,IC50,Compound
1,1300 nM,"CNC(=O)c1ccccc1Nc1cc(Nc2cnn(CC(=O)N3CCOCC3)c2)ncc1F [Example 4.05, 2-[[5-fluoro-2-[[1-(2-morpholino-2-oxo-ethyl)pyrazol-4-yl]amino]-4-pyridyl]amino]-N-methyl-benzamide]"
2,5 nM,"CONC(=O)c1ccccc1Nc1cc(Nc2cn(C)nc2C)ncc1C(F)(F)F [Example 10.08, 2-[[2-[(1,3-dimethylpyrazol-4-yl)amino]-5-(trifluoromethyl)-4-pyridyl]amino]-N-methoxy-benzamide]"
3,5 nM,"CONC(=O)c1ccccc1Nc1cc(Nc2c(C)nn(C)c2C)ncc1C(F)(F)F [Example 15.06, N-methoxy-2-[[5-(trifluoromethyl)-2-[(1,3,5-trimethylpyrazol-4-yl)amino]-4-pyridyl]amino]benzamide]"
4,60 nM,"CNC(=O)c1ccccc1Nc1cc(Nc2cc(OC)nn2C)ncc1Cl [Example 3.08, 2-[[5-Chloro-2-[(5-methoxy-2-methylpyrazol-3-yl)amino]pyridin-4-yl]amino]-N-methylbenzamide]"
5,5 nM,"CNC(=O)c1ccc(F)cc1Nc1cc(Nc2cn(C)nc2C)ncc1Cl [Example 3.42, 2-[[5-chloro-2-[(1,3-dimethylpyrazol-4-yl)amino]-4-pyridyl]amino]-4-fluoro-N-methyl-benzamide]"
6,482 nM,"CNC(=O)c1ccccc1Nc1cc(Nc2cn(C)nc2C(=O)N(C)C)ncc1C(F)(F)F [Example 12.08, N,N,1-trimethyl-4-[[4-[[2-(methylcarbamoyl)phenyl]amino]-5-(trifluoromethyl)-2-pyridyl]amino]pyrazole-3-carboxamide]"
7,34 nM,"CNC(=O)c1ccccc1Nc1cc(Nc2cnn(C(C)C)c2)ncc1C(F)(F)F [Example 8.11, 2-[[2-[(1-isopropylpyrazol-4-yl)amino]-5-(trifluoromethyl)-4-pyridyl]amino]-N-methyl-benzamide]"
8,5 nM,"Cc1c(Nc2cc(Nc3cccc4c3C(=O)N(C)CC4)c(Cl)cn2)cnn1C [Example 6.03, 8-[[5-chloro-2-[(1,5-dimethylpyrazol-4-yl)amino]-4-pyridyl]amino]-2-methyl-3,4-dihydroisoquinolin-1-one]"
9,14 nM,"CNC(=O)c1cc(Cl)ccc1Nc1cc(Nc2cn(C)nc2C)ncc1C(F)(F)F [Example 10.07, 5-chloro-2-[[2-[(1,3-dimethylpyrazol-4-yl)amino]-5-(trifluoromethyl)-4-pyridyl]amino]-N-methyl-benzamide]"
10,670 nM,"CNC(=O)c1ccccc1Nc1cc(Nc2cnn(C3CCOCC3)c2)ncc1Cl [Example 3.15, 2-[[5-chloro-2-[(1-tetrahydropyran-4-ylpyrazol-4-yl)amino]-4-pyridyl]amino]-N-methyl-benzamide]"
11,53 nM,"CNC(=O)c1ccc(OC)cc1Nc1cc(Nc2cn(C)nc2C)ncc1C(F)(F)F [Example 10.04, 2-[[2-[(1,3-dimethylpyrazol-4-yl)amino]-5-(trifluoromethyl)-4-pyridyl]amino]-4-methoxy-N-methyl-benzamide]"
12,10 nM,"CONC(=O)c1c(Nc2cc(Nc3c(C)nn(C)c3C)ncc2C(F)(F)F)cccc1OC [Example 15.05, N,2-dimethoxy-6-[[5-(trifluoromethyl)-2-[(1,3,5-trimethylpyrazol-4-yl)amino]-4-pyridyl]amino]benzamide]"
13,19 nM,"Cc1nn(C)cc1Nc1cc(Nc2ccc(N3CCN(C(C)C)CC3)c3c2C(=O)N(C)C3)c(C#N)cn1 [Example 1.09, 6-[(1,3-Dimethylpyrazol-4-yl)amino]-4-[[7-(4-isopropylpiperazin-1-yl)-2-methyl-3-oxo-isoindolin-4-yl]amino]pyridine-3-carbonitrile]"
14,5 nM,"CNC(=O)c1c(Nc2cc(Nc3cc(C)nn3C)ncc2C(F)(F)F)cccc1OC [Example 11.01, 2-[[2-[(2,5-dimethylpyrazol-3-yl)amino]-5-(trifluoromethyl)-4-pyridyl]amino]-6-methoxy-N-methyl-benzamide]"
15,99 nM,"CNC(=O)c1ccccc1Nc1cc(Nc2cnn(CC(=O)N(C)CCOC)c2)ncc1Cl [Example 3.06, 2-[[5-chloro-2-[[1-[2-(2-methoxyethyl-methyl-amino)-2-oxo-ethyl]pyrazol-4-yl]amino]-4-pyridyl]amino]-N-methyl-benzamide]"
16,10 nM,"CNC(=O)c1cccc(F)c1Nc1cc(Nc2cn(C)nc2C)ncc1C(F)(F)F [Example 10.06, 2-[[2-[(1,3-dimethylpyrazol-4-yl)amino]-5-(trifluoromethyl)-4-pyridyl]amino]-3-fluoro-N-methyl-benzamide]"
17,199 nM,"CN1CCN(C(=O)Cn2cc(Nc3cc(Nc4cccc5c4C(=O)N(C)CC5)c(F)cn3)cn2)CC1 [Example 4.26, 8-[[5-fluoro-2-[[1-[2-(4-methylpiperazin-1-yl)-2-oxo-ethyl]pyrazol-4-yl]amino]-4-pyridyl]amino]-2-methyl-3,4-dihydroisoquinolin-1-one]"
18,11 nM,"CN1CCc2cccc(Nc3cc(Nc4cnn(CC(=O)N5CCOCC5)c4)ncc3Cl)c2C1=O [Example 3.27, 8-[[5-chloro-2-[[1-(2-morpholino-2-oxo-ethyl)pyrazol-4-yl]amino]-4-pyridyl]amino]-2-methyl-3,4-dihydroisoquinolin-1-one]"
19,19 nM,"CNC(=O)c1ccccc1Nc1cc(Nc2cc(C)n(C)n2)ncc1C(F)(F)F [Example 2.01, 2-[[2-[(1,5-Dimethylpyrazol-3-yl)amino]-5-(trifluoromethyl)-4-pyridyl]amino]-N-methyl-benzamide]"
20,20 nM,"CN1CCc2cccc(Nc3cc(Nc4cnn(CC(=O)N5CCCC5)c4)ncc3Cl)c2C1=O [Example 3.23, 8-[[5-Chloro-2-[[1-(2-oxo-2-pyrrolidin-1-yl-ethyl)pyrazol-4-yl]amino]-4-pyridyl]amino]-2-methyl-3,4-dihydroisoquinolin-1-one]"
21,1770 nM,"CNC(=O)c1ccccc1Nc1cc(Nc2cn(C)nc2C)ncc1F [Example 4.10, 2-[[2-[(1,3-dimethylpyrazol-4-yl)amino]-5-fluoro-4-pyridyl]amino]-N-methyl-benzamide]"
22,87 nM,"CNC(=O)c1cc(F)ccc1Nc1cc(Nc2cn(C)nc2C)ncc1Cl [Example 3.41, 2-[[5-chloro-2-[(1,3-dimethylpyrazol-4-yl)amino]-4-pyridyl]amino]-5-fluoro-N-methyl-benzamide]"
23,26 nM,"CNC(=O)c1ccccc1Nc1cc(Nc2cc(C3CC3)nn2C)ncc1C(F)(F)F [Example 8.07, 2-[[2-[(5-cyclopropyl-2-methyl-pyrazol-3-yl)amino]-5-(trifluoromethyl)-4-pyridyl]amino]-N-methyl-benzamide]"
24,10 nM,"CCn1nccc1Nc1cc(Nc2ccccc2C(=O)NC)c(C(F)(F)F)cn1 [Example 8.08, 2-[[2-[(2-ethylpyrazol-3-yl)amino]-5-(trifluoromethyl)-4-pyridyl]amino]-N-methyl-benzamide]"
25,71 nM,"CC(C)Cn1cc(Nc2cc(Nc3cccc4c3C(=O)N(C)CC4)c(Cl)cn2)cn1 [Example 6.09, 8-[[5-chloro-2-[(1-isobutylpyrazol-4-yl)amino]-4-pyridyl]amino]-2-methyl-3,4-dihydroisoquinolin-1-one]"
26,6 nM,"CNC(=O)c1ccc(F)cc1Nc1cc(Nc2cc(C)nn2C)ncc1C(F)(F)F [Example 15.03, 2-[[2-[(2,5-dimethylpyrazol-3-yl)amino]-5-(trifluoromethyl)-4-pyridyl]amino]-4-fluoro-N-methyl-benzamide]"
